Data on 1 substance can be found in US20240408175A1, “BMP9 OR AN AGONIST THEREOF AND ITS USES RELATED TO REDUCING METASTASIS OF CANCER” (THE UAB RESEARCH FOUNDATION, priority 2021, published 2024).

Data set [1] is described as follows: ELISA of BMP9 in plasma from mice. Particulars: PA1-luc-GFP mice, daily i.p. administration. The class given is in vivo. In general terms: ELISA stands for enzyme-linked immunosorbent assay.
Data set [2] has as its system SOX2 promoter. As to the kind of experiment: Chromatin immunoprecipitation (ChIP) at SOX2 promoter regions. In kind it is cell-based, human. As to the method:
ChIP was carried out using a modified version of a previously described protocol (Medeiros et al., 2009). Cells were grown to 80% confluency in 150 mm culture dishes. Cells were fixed at room temperature in 1% Paraformaldehyde solution (dilute 8% PFA in serum free media to get 1%) and rocked for 10 minutes. 10×Glycine was added to the plate and allowed to sit for 5 minutes at room temperature. Cells were scraped down and cell suspension were transferred to a cold centrifuge tube for centrifugation at 720 RCF at 4° C. for 10 minutes. Cells were rinsed with 1X Phosphate buffer saline and centrifugation repeated. Cell pellet was next resuspended in lysis buffers described in (Medeiros et al., 2009) to obtain nuclei pellet. This was followed by chromatin sonication, using QSonica sonicator (model CL-188) for four cycles (30% amplitude for 15 secs ON and 30 secs OFF) to obtain DNA fragments with a length from 150 to 300 bp. 1/10th of the supernatant was stored as input control. ChIP was performed using Protein A magnetic beads (Dynabeads, Invitrogen #10001D) to couple […] ChIP-grade antibodies for SMAD1, SMAD3, H3K27me3, H3K4me3, or rabbit IgG antibody overnight at 4 °C. DNA was purified using the PureLink Quick PCR Purification kit (Thermo Fisher Cat #: K310001) and enrichment of DNA fragments analyzed via relative quantitative RT-PCR (qPCR) using ChIP primers (see Table 2) to specific locations. Negative and positive control regions were included in all analysis.

The subject of data set [3] is A2780CP cells. As to the kind of experiment: Cell survival under anchorage independence, A2780CP. The class given is cell-based, human. Particulars: dose and time course. As to the method: (§1) For Live/Dead analysis under anchorage independence, 1,000 cells were seeded in 96-well hydrogel-coated ultra-low attachment (ULA) plates (Corning #4515) for times indicated. Growth factor treatment was done under low serum 2.5% FBS condition (Cells were plated in 10% FBS to allow spheroid formation before beginning treatment). Cells were then stained with 2 μM Calcein-AM and 4 μM Ethidium-homodimer for 30 min before imaging. z-stacked images were obtained using the Zeiss LSM700 Confocal microscope (Microscopy and Flow Cytometry Core, University of South Carolina) and NIKON A1 Confocal microscope (UAB High Resolution Imaging Facility). Fluorescent quantification was performed using ImageJ Fiji software to calculate the Corrected Total Cell Fluorescent (CTCF)=Integrated Density−(Area of selected cell×Mean fluorescence of background readings) per spheroid.

The subject of data set [4] is PA1-luc-GFP cells. As to the kind of experiment: PA1-luc-GFP intraperitoneal xenograft. The class given is in vivo, NOD-SCID mice. The method, then: (§2) All animal studies were performed in accordance with the Institutional Animal Care and Use Committee at the University of Alabama Birmingham. Female SCID mice (Key resources table) at 5-7 weeks of age were housed under pathogen-free conditions at the Animal Research Facility at UAB. 1.5×10^6 GFP-luciferase SK-OV3 cells or 3×10^6 GFP-luciferase expressing PA1 cells were intraperitoneally injected. Mice were monitored daily, with girth and weight measurement taken twice a week. Tumor progression was tracked weekly using the IVIS Lumina III In vivo Imaging System (Caliper Life Sciences, MA) at UAB's Small Animal Imaging Facility. rhBMP9 was administered at the time of tumor cell injection followed by daily intraperitoneal (i.p.) injections of 1 mg/mL in 4 mM HCl+PBS+DI water (Vehicle), to achieve a final 5 mg/kg dose. For metastasis and tumor growth analysis, mice were euthanized between 21-50 days depending on the cell line. At necropsy, ascites, if present, were collected and volumes measured when possible, tumor weights in the omentum and other organs were recorded and collected when possible. For survival studies, mice that reached end-point criteria, including continued weight loss, respiratory trouble and permanent recumbency were euthanized. For microscopic analysis of tissues, formalin-fixed tissues were processed, paraffin-embedded, and sectioned at 5 μm thickness and H&E stained at UAB's histology core.
IHC was performed using the BioCare Mach4 Universal Detection Kit. Specifically, anti-SOX2 was diluted in Da Vinci Green Diluent and incubated overnight at 4° C. in a humidified chamber. HRP was detected with 3,30-diaminobenzidine (DAB) substrate for 4 minutes. TUNEL staining was performed according to the manufacturer's instruction. Slides were examined and images captured with EVOS M7000 microscope. Cell profiler (Stirling et al., 2021) and Image J Fiji software were used for image quantification.

For data set [5], the system named is 1-kb SOX2 promoter reporter. Briefly: pGL3-SOX2 promoter-reporter luciferase assay in HEK293 cells. The class given is cell-based, human. Particulars: 10 nM, 24 hours, serum-free. The method, then: HEK293 cells were transfected with the pGL3-SOX2 promoter-luciferase reporter plasmid construct and SV40-renilla for 24h. […] According to the manufacturer's instruction, cells were collected and lysed in […] passive lysis buffer. To measure luciferase activity, […] of lysate was added to […] of dual Luciferase Assay Reagent, and luminescence was quantitated using a luminometer (Biotek).

Data set [6] has as its system A2780ip2 cells. Briefly: Cell survival under anchorage independence, A2780ip2. The class given is cell-based, human. Particulars: dose and time course. As to the method:
as §1

Data set [7] concerns OC cell lines (PA1, OVCA420, OVCAR3, SKOV3, OVCA433). Briefly: Live/Dead analysis under anchorage independence (anoikis), panel of OC cell lines. In kind it is cell-based, human. Particulars: 10 nM for 24 hours after 48 hours anchorage independence.
A short description of data set [8]: Overall toxicity of daily i.p. BMP9 (body weight, kidney and liver function tests). Particulars: up to 3 weeks. The class given is in vivo. The method, then: as §2, with “For microscopic analysis of tissues, formalin-fixed tissues were processed, paraffin-embedded, and sectioned at 5 μm thickness and H&E stained at UAB's histology core.” left out
Data set [9] concerns HEY parental cells. Briefly: Cell survival under anchorage independence, HEY parental. The class given is cell-based, human. Particulars: 1, 5, 10 nM for 24, 48, and 72 hours. The method, then: as §1
In data set [10] the test system is PA1 cells. Briefly: Sulforhodamine B (SRB) growth assay, attached 2D. In kind it is cell-based, human. Particulars: 10 nM, 3 days. In general terms: The SRB assay estimates cell density from bound dye.
Experimental: Growth of cells was monitored by seeding 1,000 cells per well in a 96 well plate, followed by treatment with 10 nM BMP2/9 for indicated times. At endpoint, medium was shaken out from plates, followed by addition of cold 10% trichloroacetic acid in each well, and incubation at 4° C. for 10 minutes. Five sequential wash steps were performed by complete immersion in water and shake out of the water from the plate. Next, 0.4% sulforhodamine B (SRB) in 1% acetic acid was added to each well and incubated at room temperature for 10 minutes. Five washed were done by complete immersion in 1% acetic acid followed by complete removal of the remaining wash. Plates were air dried overnight. Finally, 200 mL of 20 mM Tris pH 10 (unbuffered) was added to each well and plate rocked on a rotary shaker for 1-2 hours and absorbance measured at 570 nm with a plate reader (Vichai and Kirtikara, 2006).

Consider “BMP9: recombinant human bone morphogenetic protein 9 (BMP9/GDF2), TGF-β family ligand”, for which, in data set [1], the “BMP9 in plasma (ELISA)” value is “elevated”. Moreover, the “SMAD1 binding at sites p1 and p6 (ChIP)” value in data set [2] (1 h treatment) was “significant enrichment”. The “histone H3K27me3 on the SOX2 promoter (ChIP)” value in data set [2] (PA1, 1 hour rhBMP9) is “significantly enriched”. Moreover, the “decrease in percentage live cells” value in data set [3] is 25-55%; in data set [6] it was 30%; in data set [9] it was 50-65%. Further, the omental tumor burden result in [4] (5 mg/kg i.p. daily, 7-week study, vs vehicle) was “significantly lower”. The “overall i.p. tumor burden over time by bioluminescence imaging” value in data set [4] (5 mg/kg i.p. daily, vs vehicle) is recorded as “significant reduction”. Besides, the “infiltrated tumor cells in omental tumors (histology)” value in [4] (vs vehicle) was “significantly fewer”. Further, in data set [4] (vs vehicle-treated mice), the “increase in TUNEL-positive cells in tumors” value is listed as “a factor of two increase”. Also, the “luciferase activity of SOX2 promoter reporter” value in data set [5] is reported as “significantly reduce”. Further, in data set [7], the “percentage of dead cells” value is on record as “increase”. Moreover, the “overall toxicity (body weight, kidney and liver function tests)” value in data set [8] is given as “no notable toxicity”. The cell growth entry in data set [10] is listed as “did not alter”.
